In patent US20240101548A1, “HYDROXAMATE COMPOUND, PREPARATION METHOD THEREFOR AND APPLICATION THEREOF” (SHENZHEN CHIPSCREEN BIOSCIENCES CO., LTD., priority 2020, published 2024):
Read-outs that look alike come from different tables or passages of the source.

How the values were obtained:
[1] = test system: INF-α-induced pSTAT5 in human PBMC; assay: INF-α-induced pSTAT5 in human PBMC (FACS, CD3 positive cells); type: cell-based; conditions: IFN-α 30 ng/ml, read-out: Inhibition activity IC50 on INF-α-induced pSTAT5 in human PBMC
Experimental: hPBMC (available from Shanghai AoNeng Biotechnology Co., Ltd.) was inoculated in 96-well plate, added with compound of the present invention (at concentrations of 40 nM and 200 nM), incubated for 60 min (compound in concentrations of 2 nM, 10 nM respectively during the incubation); added with 30 ng/ml of stimulating factor IFN-α (BioLegend) together with anti-CD3 antibody (Biolegend) and then continued to be incubated for 30 min. After the incubation, each well was added with 1 mL of fixing solution (BD Biosciences), the obtained mixture was incubated for 10 min followed by centrifugation, added with 400 μL/well of Perm III (BD Biosciences), followed by further incubation at 4° C. for 30 min. The obtained mixture was added with mouse anti-human pSTAT5 antibody (Alexa Fluor® 647 Conjugate), followed by incubation at room temperature for 40 min. Fluorescence intensity of pSTAT5 in CD3 positive cells was detected by FACS.
Inhibition rate at individual compound concentration was calculated with the following formula:
Inhibition rate=(MFI value(IFN-α-stimulated control)−MI value(2/10 nM compound treated group)/MFI value(IFN-α-stimulated control)[…]
wherein: MFI value meant fluorescence intensity value; IFN-α-stimulated control meant control group which was operated similarly to the experimental groups but no compound of the present invention was added.

[2] = test system: IL-10-induced JAK1/TYK2 signal pathway; assay: IL-10-induced JAK1/TYK2 signal pathway STAT3-Luc reporter gene assay in U2OS cells; type: cell-based, human; conditions: U2OS cells, STAT3-Luc reporter, IL-10 10 ng/mL, read-out: Half inhibition dose (IC50) on IL-10-induced JAK1/TYK2 signal pathway
Procedure, shortened: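 U2OS cells co-transfected with IL-10R1-EGFP and STAT3-luciferase reporter plasmids; after 24 h, compound added (0–300 nM) for 6 h before 10 ng/mL human IL-10, then 24 h culture. Luciferase signal normalised to GFP for transfection efficiency; IC50 from inhibition rates.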

[3] = test system: IL-2-induced JAK1/JAK3 signal pathway; assay: IL-2-induced proliferation of KHYG-1 cells (JAK1/JAK3 signal); type: cell-based, human; conditions: Homo sapiens; KHYG-1 cell proliferation, IL-2 10 ng/mL, 72 hours; read-out: Inhibition activity IC50 on IL-2-induced JAK1/JAK3 signal pathway
Procedure, shortened: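 KHYG-1 NK lymphoma cells were cultured with IL-2 and test compound at various doses for 72 h at 37 °C and 5% CO2, and proliferation was read with alamarBlue fluorescence. Inhibition was normalized to wells without compound or cytokine (0%) and IL-2 wells without compound (100%), and C50 was derived from the dose-inhibition data.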

[4] = test system: EPO-induced JAK2 signal pathway; assay: EPO-induced proliferation of UT-7 cells (JAK2 signal); type: cell-based, human; conditions: Homo sapiens, UT7; UT-7 cell proliferation, EPO 10 ng/mL, 72 hours; read-out: Inhibition activity IC50 on EPO-induced JAK2 signal pathway
Procedure, shortened: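 UT-7 cells (15000/well) stimulated with 10 ng/mL human recombinant EPO plus compound at final 0, 100, 1000 or 10000 nM, 72 h at 37° C., 5% CO2. Proliferation by alamarBlue fluorescence (Ex530/Em590); inhibition normalised to no-cytokine/no-compound (0) and EPO-only (100) wells, […] derived from dose-inhibition.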

[5] = In-vivo pharmacokinetic test in mice; conditions: mouse, po; BALB/c female mice, gavage 10 mg/kg, plasma
Experimental: LC-MS/MS method is used to determine the drug concentration in the plasma of mice at different times after intragastric administration of the compound of the example. Relevant pharmacokinetic parameters are calculated to study the pharmacokinetic behavior of the compound of the present invention in mice, thereby evaluating the pharmacokinetic characteristics thereof.
Test animal was healthy adult BALB/c female mouse (provided by Chengdu Yaokang Biotechnology Co., Ltd.);
Compound administration and sample collection: compound was administered to BALB/c female mice by gavage (10 mg/kg). At 0.25, 0.5, 1, 2, 4, 6, 8, and 24 hours after administration, 60 μL of whole blood of the mouse fundus venous plexus were collected and centrifuged at 4000 rpm for 10 min to provide plasma.
Sample analysis: 10 μL of mouse plasma samples were respectively added with 290 μL of acetonitrile solution containing internal standard to precipitate proteins. After swirling for 10 min and centrifuging at 4000 rpm for 10 min, 200 μL of supernatant was added to 96-well plate, and analyzed by LC-MS/MS at an injection volume of 1 μL.

[6] = target: TYK2 JH2 domain (Homo sapiens (Human), UniProt P29597); assay: TYK2 JH2 domain FRET tracer assay; type: binding; conditions: FRET 665/615 nm; read-out: Inhibition activity IC50 on TYK2 JH2 domain
Experimental: Compound of the present invention formulated into different concentrations (series 3 times dilutions, started from 60 μM, 11 concentrations in total) was added to 384-well plate, followed by 5 μL of enzyme (i.e., TYK2 JH2 domain), Tb antibody (Cisbio) and tracer. The mixture was incubated at 25° C. for 60 min and left at 4° C. overnight.

Sequence of TYK2 JH2 domain (P29597 589-875): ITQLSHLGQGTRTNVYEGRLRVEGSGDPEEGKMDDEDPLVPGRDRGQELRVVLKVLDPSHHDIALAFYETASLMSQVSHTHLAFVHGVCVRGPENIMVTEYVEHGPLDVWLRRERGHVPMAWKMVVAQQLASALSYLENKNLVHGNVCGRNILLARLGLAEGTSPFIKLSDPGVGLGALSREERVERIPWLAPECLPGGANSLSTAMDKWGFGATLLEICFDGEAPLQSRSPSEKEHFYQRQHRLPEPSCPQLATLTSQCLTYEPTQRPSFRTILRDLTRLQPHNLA

| Molecule | IC50 ([1]; Homo sapiens, PBMC) [nM] | IC50 ([2]; Homo sapiens, U2OS) [nM] | IC50 [3] [nM] | IC50 [4] [nM] | IC50 [1] [nM] | IC50 [2] [nM] | AUC [5] [µM·h] | Cmax [5] [µM] | IC50 [6] [nM] | IC50 ([2]; Homo sapiens) [nM] |
| --- | --- | --- | --- | --- | --- | --- | --- | --- | --- | --- |
| CCONC(=O)c1cnc(Nc2cc(C)nc(C)n2)cc1Nc1cc(F)cc(-c2ncc(F)cn2)c1OC [Example 211] | < 2 | 1.98 | > 10000 | > 10000 |  |  |  |  |  |  |
| BMS-986165 |  |  |  |  | 2 | 3.03 |  |  |  |  |
| CCONC(=O)c1cnc(Nc2cc(C)nc(C)n2)cc1Nc1cc(F)cc(-c2cnc(C)cn2)c1OC [Example 214] |  | 0.16 | > 10000 | > 10000 |  |  | 41.9 | 9.21 | 0.09 |  |
| CCONC(=O)c1cnc(Nc2cc(C)nc(C)n2)cc1Nc1cccc(-c2cnccn2)c1OC [Example 248, 6-((2,6-dimethylpyrimidin-4-yl)amino)-N-ethoxy-4-((2-methoxy-3-(pyrazin-2-yl)phenyl)amino)nicotinamide] | < 2 |  | > 10000 | > 10000 |  |  |  |  |  | 1.04 |
| CCONC(=O)c1cnc(Nc2cc(C)nc(C)n2)cc1Nc1cc(F)cc(-c2ncc(C)cn2)c1OC [Example 225, 6-((2,6-dimethylpyrimidin-4-yl)amino)-N-ethoxy-4-((5-fluoro-2-methoxy-3-(5-methylpyrimidin-2-yl)phenyl)amino)nicotinamide] | < 2 | 0.36 | > 10000 | > 10000 |  |  |  |  |  |  |
| CCONC(=O)c1cnc(NC(=O)C2CC2)cc1Nc1cc(F)cc(-c2ncn(C3CC3)n2)c1OC [Example 205] | < 2 | 1.79 | > 10000 | > 10000 |  |  |  |  |  |  |
